Laboratory results taken from US5656591A, “Antimicrobial agents and method for treating products therewith” (Morinaga Milk Industry Co., Ltd., priority 1992, dated 1997).

Columns and labels:
[1] = system: Staphylococcus aureus JCM2151; test: Test for antimicrobial activity (turbidity): growth inhibiting concentration of antibiotics; assay type: cell-based; details: for MIC: Staphylococcus aureus
Method: (§1) Precultures of test microorganisms to be used in the tests described hereunder were prepared in such a manner that: from the frozen preservation of dispersions of test microorganisms, a loop of the respective strains of the microorganisms were taken out and spread onto TRI PETIT CASE SOYA AGAR MEDIA (by BBL Company), and incubated at 37° C. for 16 hours; the colonies grown on the culture media were scraped by a platinum loop and cultivated in 2.1% Mueller-Hington Broth (by Difco Company) respectively for several hours at 37° C. The resultant microbial cultures at logarithmic phase in 3×10^8 /ml of microbial concentration were used as the precultures.
(§2) The test media to be used in the respective tests were prepared in such a manner that: aqueous solutions in a predetermined concentration of the lactoferrin hydrolysates or the lactoferrin-derived antimicrobial peptides of (1) and (2) in Preparation of Samples (supra), as well as the samples of antibiotics of (3) (supra) were respectively sterilized with filters (by Advantec Company); then a quantity of the resultant solutions of respective samples were selectively added to a quantity of basal medium (Mueller-Hington Broth) prepared in the eventual concentration of 2.1%, thereby combinations of the samples and their concentrations in the respective test media were adjusted as specified in the respective tests.
(§3) Antimicrobial activity was examined as follows: A quantity of the respective precultures prepared in (1) immediately above was diluted with 2.1% Mueller-Hington Broth to result in 2×10^6 /ml of microbial concentration; 100 μl aliquots of the resultant liquid were added to 100 μl aliquots of one of the test media as specified in the respective test; the resultant media were incubated at 37° C. for 16 hours; then the turbidity of the resultant culture broths were measured thereby antimicrobial activity was examined.
(§4) Components in the test and control media and eventual concentrations thereof were adjusted by properly combining 0 mg, 0.4 mg, 1.6 mg and 6.4 mg/ml of lactoferrin hydrolysate of (1) (in Preparation of Samples, supra). or 0 μg, 16 μg, 64 μg, and 256 μg/ml of lactoferrin-derived antimicrobial peptides of (2) (in Preparation of Samples, supra), and 0 μg, 0.01 μg, 0.1 μg, 1 μg, and 10 μg/ml of antibiotics of (3) (supra), then antimicrobial activity of the combined use of the components against Escherichia coli 0-111 and Staphylococcus aureus (JCM2151) as well as growth inhibiting concentrations of the antibiotics were investigated.

Escherichia coli 0-111 = test: as above; assay type: cell-based
Method: as §1, §2, §3, §4

[2] = JCM2151, antimicrobial peptide (Seq. ID No. 27) 0 μg/ml
[3] = JCM2151, antimicrobial peptide (Seq. ID No. 27) 16 μg/ml
[4] = JCM2151, antimicrobial peptide (Seq. ID No. 27) 64 μg/ml
[5] = JCM2151, antimicrobial peptide (Seq. ID No. 27) 256 μg/ml
[6] = lactoferrin hydrolysate 0 mg/ml
[7] = lactoferrin hydrolysate 0.4 mg/ml
[8] = lactoferrin hydrolysate 1.6 mg/ml
[9] = lactoferrin hydrolysate 6.4 mg/ml
[10] = Escherichia coli, 0111, antimicrobial peptide (Seq. ID No. 27) 0 μg/ml
[11] = Escherichia coli, 0111, antimicrobial peptide (Seq. ID No. 27) 16 μg/ml
[12] = Escherichia coli, 0111, antimicrobial peptide (Seq. ID No. 27) 64 μg/ml
[13] = Escherichia coli, 0111, antimicrobial peptide (Seq. ID No. 27) 256 μg/ml
[14] = antimicrobial peptide (Seq. ID No. 27) 0 μg/ml
[15] = antimicrobial peptide (Seq. ID No. 27) 16 μg/ml
[16] = antimicrobial peptide (Seq. ID No. 27) 64 μg/ml
[17] = antimicrobial peptide (Seq. ID No. 27) 256 μg/ml

Molecule	MIC [1, 2] [µg/mL]	MIC [1, 3] [µg/mL]	MIC [1, 4] [µg/mL]	MIC [1, 5] [µg/mL]	Growth inhibiting Concentration of antibiotics [1, 6] [µg/mL]	Growth inhibiting Concentration of antibiotics [1, 7] [µg/mL]	Growth inhibiting Concentration of antibiotics [1, 8] [µg/mL]	Growth inhibiting Concentration of antibiotics [1, 9] [µg/mL]	MIC (Escherichia coli 0-111; [10]) [µg/mL]	MIC (Escherichia coli 0-111; [11]) [µg/mL]	MIC (Escherichia coli 0-111; [12]) [µg/mL]	MIC (Escherichia coli 0-111; [13]) [µg/mL]	Growth inhibiting Concentration of antibiotics (Escherichia coli 0-111; [6]) [µg/mL]	Growth inhibiting Concentration of antibiotics (Escherichia coli 0-111; [7]) [µg/mL]	Growth inhibiting Concentration of antibiotics (Escherichia coli 0-111; [8]) [µg/mL]	Growth inhibiting Concentration of antibiotics (Escherichia coli 0-111; [9]) [µg/mL]	Growth inhibiting Concentration of antibiotics [1, 14] [µg/mL]	Growth inhibiting Concentration of antibiotics [1, 15] [µg/mL]	Growth inhibiting Concentration of antibiotics [1, 16] [µg/mL]	Growth inhibiting Concentration of antibiotics [1, 17] [µg/mL]	also measured
NC[C@H]1O[C@H](O[C@H]2[C@H](O)[C@@H](O[C@H]3O[C@H](CO)[C@@H](O)[C@H](N)[C@H]3O)[C@H](N)C[C@@H]2N)[C@H](O)[C@@H](O)[C@@H]1O [kanamycin]	> 1	> 1	1	0.01	> 1	> 1	> 1	0.1	> 1	> 1	1	0.01	> 1	> 1	1	0.1	–	–	–	–	–
COc1cccc(OC)c1C(=O)N[C@@H]1C(=O)N2[C@@H]1SC(C)(C)[C@@H]2C(=O)O [staphcillin]	> 1	> 1	1	0.01	> 1	> 1	> 1	0.1	> 1	> 1	1	0.01	> 1	> 1	> 1	0.1	–	–	–	–	–
O=C(N[C@H](CO)[C@H](O)c1ccc([N+](=O)[O-])cc1)C(Cl)Cl [chloramphenicol]	> 1	> 1	1	1	> 1	> 1	> 1	1	> 1	> 1	1	0.1	> 1	> 1	> 1	0.1	–	–	–	–	–
CC[C@H]1OC(=O)[C@H](C)[C@@H](O[C@H]2C[C@@](C)(OC)[C@@H](O)[C@H](C)O2)[C@H](C)[C@@H](O[C@@H]2O[C@H](C)C[C@H](N(C)C)[C@H]2O)[C@](C)(O)C[C@@H](C)C(=O)[C@H](C)[C@@H](O)[C@]1(C)O [erythromycin]	> 1	1	1	0.01	> 1	1	1	0.01	> 1	1	1	0.01	> 1	1	1	0.1	–	–	–	–	–
CN(C)[C@@H]1C(=O)C(C(N)=O)=C(O)[C@@]2(O)C(=O)C3=C(O)c4c(O)cccc4C(C)(O)[C@H]3C[C@@H]12 (stereo partly shown) [hostacyclin]	–	–	–	–	1	1	1	0.1	–	–	–	–	1	1	1	0.1	1	1	1	0.1	Growth inhibiting Concentration of antibiotics (Escherichia coli 0-111; [14]): 1 µg/mL; Growth inhibiting Concentration of antibiotics (Escherichia coli 0-111; [15]): 1 µg/mL; Growth inhibiting Concentration of antibiotics (Escherichia coli 0-111; [16]): 1 µg/mL; Growth inhibiting Concentration of antibiotics (Escherichia coli 0-111; [17]): 0.1 µg/mL
polymyxin B	–	–	–	–	> 1	0.1	0.1	0.1	–	–	–	–	> 1	> 1	0.1	0.01	> 1	0.1	0.1	0.1	Growth inhibiting Concentration of antibiotics (Escherichia coli 0-111; [14]): > 1 µg/mL; Growth inhibiting Concentration of antibiotics (Escherichia coli 0-111; [15]): > 1 µg/mL; Growth inhibiting Concentration of antibiotics (Escherichia coli 0-111; [16]): 0.1 µg/mL; Growth inhibiting Concentration of antibiotics (Escherichia coli 0-111; [17]): 0.1 µg/mL
gentamicin	–	–	–	–	1	0.1	0.1	0.1	–	–	–	–	1	1	0.1	0.1	1	0.1	0.1	0.1	Growth inhibiting Concentration of antibiotics (Escherichia coli 0-111; [14]): 1 µg/mL; Growth inhibiting Concentration of antibiotics (Escherichia coli 0-111; [15]): 1 µg/mL; Growth inhibiting Concentration of antibiotics (Escherichia coli 0-111; [16]): 0.1 µg/mL; Growth inhibiting Concentration of antibiotics (Escherichia coli 0-111; [17]): 0.1 µg/mL
